The source made the active and inactive calls. No cut-off for these calls is given here.
Columns and labels:
[1] = molecular target: T1, T1R2/T1R3 (Homo sapiens) (UniProt Q8TE23+Q7RTX0); experiment: Positive allosteric modulator activity at human T1R2/T1R3 expressed in PEAKrapid cells assessed as potentiation of sucrose-induced intracellular calcium influx by measuring sucrose EC50 at 30 uM measured for 120 secs by fluorescence based assay relative to FEMA4774; type: functional, cell-based
[2] = molecular target: T1, T1R2/T1R3 (Homo sapiens); experiment: Agonist activity at human T1R2/T1R3 expressed in PEAKrapid cells assessed as effect on intracellular calcium influx measured for 120 secs by fluorescence based assay; type: functional, cell-based
[3] = organism: Homo sapiens; experiment: Sweetness enhancing activity in trained human panelists assessed as rating of perceived sweetness intensity of depicted sucrose solutions at 10 ppm co-treated with 5% sucrose relative to original level; type: functional
[4] = molecular target: T1, T1R2/T1R3 (Homo sapiens); experiment: Positive allosteric modulator activity at human T1R2/T1R3 expressed in PEAKrapid cells assessed as potentiation of sucrose-induced intracellular calcium influx by measuring sucrose EC50 at 50 uM measured for 120 secs by fluorescence based assay relative to compound-2; type: functional, cell-based

Structure (SMILES)	Efficacy [1] [%]	Activity [2]	Efficacy [4] [%]	fold change (FC) [3]
CC(=O)NCc1ccc(-c2cncc(C(=O)O)c2N)o1	33	inactive		
CC(C)CNC(=O)C(=O)NCc1ccc(-c2cncc(C(=O)O)c2N)o1	43	inactive		
CC(C)(C)OC(=O)NCc1ccc(-c2cncc(C(=O)O)c2N)o1	41	inactive		
Nc1c(C(=O)O)cncc1-c1cccs1		inactive	85	
CC(C)CC(=O)NCc1ccc(-c2cncc(C(=O)O)c2N)o1	42	inactive		
Nc1c(C(=O)O)cncc1-c1ccccc1		inactive	80	
CC[C@H](C)[C@H](N)C(=O)NCc1ccc(-c2cncc(C(=O)O)c2N)o1	55	inactive		
CC(C)CNC(=O)NCc1ccc(-c2cncc(C(=O)O)c2N)o1	48	inactive		
CC(C)[C@H](N)C(=O)NCc1ccc(-c2cncc(C(=O)O)c2N)o1	52	inactive		
CC(C)C[C@H](N)C(=O)NCc1ccc(-c2cncc(C(=O)O)c2N)o1	61	inactive		
Cc1nc2cccc(OCC(C)(C)C(=O)NC(C)C)c2c(N)c1C(=O)O		inactive		1.97
Cc1nc2ccccc2c(N)c1C(=O)O		inactive		
Nc1c(C(=O)O)cncc1-c1ccco1		inactive	83	
CC(C)C(=O)NCc1ccc(-c2cncc(C(=O)O)c2N)o1	37	inactive		
Cl.Cl.Nc1c(C(=O)O)cncc1-c1ccc(CNC(=O)[C@@H](N)C2CCCCC2)o1	72	inactive		1.77

Further lines, with some results ahead:

Efficacy [1] [%]	Activity [2]	Efficacy [4] [%]	Structure (SMILES)	fold change (FC) [3]
45	inactive		CC(C)[C@@H](CCC(=O)Nc1cncc(C(=O)O)c1N)NC(=O)[C@@H](N)C1CCCCC1	
38	inactive		CC(C)C[C@@H](CC(=O)Nc1cncc(C(=O)O)c1N)NC(=O)[C@@H](N)C1CCCCC1	
36	inactive		Nc1c(NC(=O)CCCCCCNC(=O)[C@@H](N)C2CCCCC2)cncc1C(=O)O	
45	inactive		Cl.Cl.Nc1c(NC(=O)CCCCNC(=O)[C@@H](N)C2CCCCC2)cncc1C(=O)O	1.96
67	inactive		CC(C)(CC(=O)Nc1cncc(C(=O)O)c1N)NC(=O)[C@@H](N)C1CCCCC1.Cl.Cl	2.05
51	inactive		CC[C@H](C)[C@@H](CCC(=O)Nc1cncc(C(=O)O)c1N)NC(=O)[C@@H](N)C1CCCCC1	
55	inactive		Nc1c(NC(=O)CC[C@H](Cc2ccccc2)NC(=O)[C@@H](N)C2CCCCC2)cncc1C(=O)O	
35	inactive		CC(C)[C@@H](CC(=O)Nc1cncc(C(=O)O)c1N)NC(=O)[C@@H](N)C1CCCCC1	
37	inactive		Nc1c(NC(=O)CCCNC(=O)[C@@H](N)C2CCCCC2)cncc1C(=O)O	
44	inactive		C[C@@H](CC(=O)Nc1cncc(C(=O)O)c1N)NC(=O)[C@@H](N)C1CCCCC1	

Source: ChEMBL document CHEMBL4433226, “Unnatural Tripeptides as Potent Positive Allosteric Modulators of T1R2/T1R3” (ACS Med Chem Lett, 2019)
